Measured values from ChEMBL document CHEMBL4765292, “Flexible diaminodihydrotriazine inhibitors of Plasmodium falciparum dihydrofolate reductase: Binding strengths, modes of binding and their antimalarial activities” (Eur J Med Chem, 2020).

Columns and labels:
[1] = Inhibition of Plasmodium falciparum DHFR expressed in Escherichia coli BL21 using DHF as substrate by spectrophotometric analysis
Plasmodium falciparum [2] = assay: Antimalarial activity against Plasmodium falciparum TM4/8.2 infected in human erythrocytes assessed as reduction in [3H]-hypoxanthine incorporation pretreated for 20 hrs followed by [3H]-hypoxanthine addition measured after 20 hrs by radioactivity method; assay type: functional, organism-based
[3] = Inhibition of Plasmodium falciparum DHFR N51I/C59R/S108N/I164L mutant expressed in Escherichia coli BL21 using DHF as substrate by spectrophotometric analysis
[4] = Inhibition of Plasmodium falciparum DHFR C59R/S108N/I164L mutant expressed in Escherichia coli BL21 using DHF as substrate by spectrophotometric analysis
Plasmodium falciparum [5] = assay: Antimalarial activity against Plasmodium falciparum W2 harboring DHFR N51I/C59R/S108N mutant infected in human erythrocytes assessed as reduction in [3H]-hypoxanthine incorporation pretreated for 20 hrs followed by [3H]-hypoxanthine addition measured after 20 hrs by radioactivity method; assay type: functional, organism-based; settings: W2, Erythrocyte
[6] = Inhibition of Plasmodium falciparum DHFR A16V/S108T mutant expressed in Escherichia coli BL21 using DHF as substrate by spectrophotometric analysis
Plasmodium falciparum [7] = assay: Antimalarial activity against Plasmodium falciparum K1CB1 harboring DHFR […] mutant infected in human erythrocytes assessed as reduction in [3H]-hypoxanthine incorporation pretreated for 20 hrs followed by [3H]-hypoxanthine addition measured after 20 hrs by radioactivity method; assay type: functional, organism-based; settings: K1CB1, Erythrocyte
[8] = Inhibition of Plasmodium falciparum DHFR N51I/C59R/S108N mutant expressed in Escherichia coli BL21 using DHF as substrate by spectrophotometric analysis
Plasmodium falciparum [9] = assay: Antimalarial activity against Plasmodium falciparum V1/S harboring DHFR N51I/C59R/S108N/I164L mutant infected in human erythrocytes assessed as reduction in [3H]-hypoxanthine incorporation pretreated for 20 hrs followed by [3H]-hypoxanthine addition measured after 20 hrs by radioactivity method; assay type: functional, organism-based; settings: Erythrocyte
Plasmodium falciparum [10] = assay: Antimalarial activity against Plasmodium falciparum CsI-2 harboring DHFR C59R/S108N/I164L mutant infected in human erythrocytes assessed as reduction in [3H]-hypoxanthine incorporation pretreated for 20 hrs followed by [3H]-hypoxanthine addition measured after 20 hrs by radioactivity method; assay type: functional, organism-based; settings: CsI-2, Erythrocyte
[11] = Inhibition of Plasmodium falciparum DHFR […] mutant expressed in Escherichia coli BL21 using DHF as substrate by spectrophotometric analysis
Plasmodium falciparum [12] = assay: Antimalarial activity against Plasmodium falciparum T9/94 RC17 harboring DHFR A16V/S108T mutant infected in human erythrocytes assessed as reduction in [3H]-hypoxanthine incorporation pretreated for 20 hrs followed by [3H]-hypoxanthine addition measured after 20 hrs by radioactivity method; assay type: functional, organism-based; settings: T9/94 RC17, Erythrocyte

Row | SMILES | Ki [1] | IC50 (Plasmodium falciparum [2]) | Ki [3] | Ki [4] | IC50 (Plasmodium falciparum [5]) | Ki [6] | IC50 (Plasmodium falciparum [7]) | Ki [8] | IC50 (Plasmodium falciparum [9]) | IC50 (Plasmodium falciparum [10]) | Ki [11] | IC50 (Plasmodium falciparum [12])
1 | CC1(C)N=C(N)N=C(N)N1OCCOc1cc(Cl)c(Cl)cc1Cl | 1 nM | 750 nM | 16 nM | 11 nM | 3010 nM | 6.1 nM | 490 nM | 2.2 nM | 11500 nM | 3300 nM | 1.2 nM | –
2 | CC1(C)N=C(N)N=C(N)N1OCCNS(=O)(=O)c1ccccc1 | 2.7 nM | 4400 nM | 234 nM | 169 nM | 26000 nM | 215 nM | 10000 nM | 5.8 nM | 77400 nM | 76500 nM | 4.8 nM | 15000 nM
3 | CC1(C)N=C(N)N=C(N)N1OCCCN(Cc1ccccc1)c1ccc(Cl)c(Cl)c1 | 1 nM | 150 nM | 1.7 nM | 2.7 nM | 2100 nM | 5.3 nM | 2300 nM | 1.2 nM | 5300 nM | 5000 nM | 1.6 nM | 290 nM
4 | CC1(C)N=C(N)N=C(N)N1OCCCN(Cc1ccccc1)Cc1ccccc1 | 1.5 nM | 22 nM | 5.4 nM | 3.1 nM | 500 nM | 6.3 nM | 350 nM | 3.1 nM | 5400 nM | 500 nM | 2.9 nM | 25 nM
5 | CCN(CCCON1C(N)=NC(N)=NC1(C)C)c1ccc(Cl)c(Cl)c1 | 1.4 nM | 26 nM | 3.9 nM | 2.2 nM | 71 nM | 2.8 nM | 35 nM | 2 nM | 2900 nM | 46 nM | 2.1 nM | –
6 | CC1(C)N=C(N)N=C(N)N1OCCCN(Cc1ccccc1)c1ccc(Cl)cc1 | 0.6 nM | 31 nM | 2 nM | 2.3 nM | 510 nM | 6.1 nM | 400 nM | 1.1 nM | 3600 nM | 3100 nM | 0.8 nM | 49 nM
7 | CC1(C)N=C(N)N=C(N)N1OCc1ccccc1 | 0.4 nM | 2670 nM | 45 nM | 30 nM | 4500 nM | 46 nM | 1800 nM | 5.9 nM | > 100000 nM | 47600 nM | 2.8 nM | –
8 | CC1(C)N=C(N)N=C(N)N1OCCCSC1CCCCC1 | 0.6 nM | 3.3 nM | 1.4 nM | 1.5 nM | 190 nM | 3 nM | 260 nM | 0.8 nM | 3500 nM | 260 nM | 1.1 nM | 6.9 nM
9 | NC1=NC(c2ccccc2)N(CCCOc2cc(Cl)c(Cl)cc2Cl)C(N)=N1 (centres undefined) | 1.2 nM | 750 nM | 5.7 nM | 5.6 nM | 2300 nM | 7.3 nM | 2900 nM | 2.6 nM | 2600 nM | 3100 nM | 2.1 nM | 18 nM
10 | CC1(C)N=C(N)N=C(N)N1OCCCNS(=O)(=O)c1ccccc1 | 0.8 nM | 51 nM | 184 nM | 51 nM | 15200 nM | 61 nM | 5400 nM | 10 nM | 61900 nM | 73400 nM | 4.3 nM | 2200 nM
11 | CC1(C)N=C(N)N=C(N)N1OCC(=O)Nc1ccc(Cl)cc1 | 2.3 nM | 3000 nM | 9.7 nM | 8.8 nM | 3700 nM | 56.8 nM | 4000 nM | 4 nM | 16700 nM | 7900 nM | 3.8 nM | 5000 nM
12 | CC1(C)N=C(N)N=C(N)N1OCCCCOCc1ccccc1 | 1 nM | 400 nM | 18.2 nM | 12.2 nM | 3200 nM | 10.5 nM | 2400 nM | 2.9 nM | 20800 nM | 4800 nM | 2.5 nM | –
13 | CC1(C)N=C(N)N=C(N)N1OCCNS(=O)(=O)c1ccc([N+](=O)[O-])cc1 | 3.2 nM | 2200 nM | 235 nM | 229 nM | 3600 nM | 222 nM | 3100 nM | 17.9 nM | 3500 nM | 3500 nM | 9.85 nM | 3500 nM
14 | NC1=NC(c2ccccc2)N(OCCCOc2ccc(Cl)cc2)C(N)=N1 (centres undefined) | 0.4 nM | 12 nM | 0.5 nM | 0.8 nM | 100 nM | 1.6 nM | 85 nM | 0.8 nM | 2300 nM | 720 nM | 1.1 nM | 0.58 nM
15 | CC1(C)N=C(N)N=C(N)N1OCCNS(=O)(=O)c1ccc(Cl)cc1 | 1.3 nM | 1200 nM | 127 nM | 114 nM | 12700 nM | 133 nM | 5900 nM | 10.2 nM | > 50000 nM | 25300 nM | 4.7 nM | 3800 nM
16 | CC1(C)N=C(N)N=C(N)N1OCCCNc1ccccc1 | 0.6 nM | 1850 nM | 4.8 nM | 1.8 nM | 300 nM | 5.7 nM | 240 nM | 1.1 nM | 2300 nM | 3200 nM | 0.8 nM | –
17 | CC1(C)N=C(N)N=C(N)N1OCCCNC(=O)c1ccccc1 | 1.4 nM | 29 nM | 13.8 nM | 6.9 nM | 230 nM | 14.7 nM | 230 nM | 2.6 nM | 5400 nM | 2400 nM | 2.6 nM | 40 nM
18 | CC1(C)N=C(N)N=C(N)N1OCC(=O)Nc1ccccc1 | 3.7 nM | 1900 nM | 17.8 nM | 16.4 nM | 13900 nM | 131 nM | 7200 nM | 6.7 nM | 18100 nM | 17100 nM | 5.2 nM | 5200 nM
19 | CC1(C)N=C(N)N=C(N)N1OCCCOCc1ccccc1 | 0.6 nM | 14 nM | 4.1 nM | 4.2 nM | 51 nM | 5.3 nM | 48 nM | 1.2 nM | 1210 nM | 400 nM | 1.3 nM | –
20 | CC1(C)N=C(N)N=C(N)N1c1ccc(Cl)cc1 [CYCLOGUANIL] | 1.5 nM | 37 nM | 421 nM | 285 nM | 6080 nM | 1310 nM | 2400 nM | 31.4 nM | > 100000 nM | 37900 nM | 43.2 nM | 3700 nM
21 | Cc1ccc(S(=O)(=O)NCCON2C(N)=NC(N)=NC2(C)C)cc1 | 1.8 nM | 2000 nM | 229 nM | 139 nM | 21500 nM | 308 nM | 9700 nM | 10.2 nM | 62200 nM | 63300 nM | 6.4 nM | 18700 nM
22 | Cc1ccc(S(=O)(=O)NCCCON2C(N)=NC(N)=NC2(C)C)cc1 | 1 nM | 440 nM | 143 nM | 73 nM | 15100 nM | 186 nM | 9600 nM | 7.5 nM | 23500 nM | 31200 nM | 4 nM | 3900 nM
23 | NC1=NC(c2ccccc2)N(OCCCc2ccccc2)C(N)=N1 (centres undefined) | 2.2 nM | 20 nM | 3.6 nM | 3.2 nM | 130 nM | 7 nM | 190 nM | 0.6 nM | 4800 nM | 4500 nM | 0.9 nM | 0.52 nM
24 | NC1=NC(c2ccccc2)N(OCCc2ccccc2)C(N)=N1 (centres undefined) | 1.4 nM | 80 nM | 14 nM | 13 nM | 16800 nM | 8.3 nM | 16200 nM | 4.1 nM | 24700 nM | 20500 nM | 3.3 nM | 3.1 nM
25 | CC1(C)N=C(N)N=C(N)N1OCC(=O)NCc1ccc(Cl)cc1 | 1.7 nM | 2400 nM | 16.3 nM | 13 nM | 2500 nM | 72.2 nM | 530 nM | 4.3 nM | 11000 nM | 3600 nM | 3.6 nM | 430 nM
